Tests used:
beta-galactosidase [1] = target: T1, beta-galactosidase (Escherichia coli, UniProt P00722); experiment: hydrolysis kinetics (Km), absorbance of 2-nitrophenol at […] nm; format: biochemical
T1 construct: gene lacZ

beta-galactosidase [2] = target: T1, beta-galactosidase; experiment: ONPG hydrolysis absorbance assay at […] nm, Lineweaver-Burk; format: biochemical
beta-galactosidase [3] = target: T1, beta-galactosidase; experiment: product-feedback inhibition of ONPG hydrolysis, absorbance at […] nm; format: biochemical
[4] = substrate: CCO; experiment: ethanol oxidation kinetics (Km), NADH absorbance, Lineweaver-Burk; format: biochemical, Saccharomyces cerevisiae; details: NAD+ binds the E-NAD complex (ordered Bi-Bi)

T1 sequence (P00722 2-1024): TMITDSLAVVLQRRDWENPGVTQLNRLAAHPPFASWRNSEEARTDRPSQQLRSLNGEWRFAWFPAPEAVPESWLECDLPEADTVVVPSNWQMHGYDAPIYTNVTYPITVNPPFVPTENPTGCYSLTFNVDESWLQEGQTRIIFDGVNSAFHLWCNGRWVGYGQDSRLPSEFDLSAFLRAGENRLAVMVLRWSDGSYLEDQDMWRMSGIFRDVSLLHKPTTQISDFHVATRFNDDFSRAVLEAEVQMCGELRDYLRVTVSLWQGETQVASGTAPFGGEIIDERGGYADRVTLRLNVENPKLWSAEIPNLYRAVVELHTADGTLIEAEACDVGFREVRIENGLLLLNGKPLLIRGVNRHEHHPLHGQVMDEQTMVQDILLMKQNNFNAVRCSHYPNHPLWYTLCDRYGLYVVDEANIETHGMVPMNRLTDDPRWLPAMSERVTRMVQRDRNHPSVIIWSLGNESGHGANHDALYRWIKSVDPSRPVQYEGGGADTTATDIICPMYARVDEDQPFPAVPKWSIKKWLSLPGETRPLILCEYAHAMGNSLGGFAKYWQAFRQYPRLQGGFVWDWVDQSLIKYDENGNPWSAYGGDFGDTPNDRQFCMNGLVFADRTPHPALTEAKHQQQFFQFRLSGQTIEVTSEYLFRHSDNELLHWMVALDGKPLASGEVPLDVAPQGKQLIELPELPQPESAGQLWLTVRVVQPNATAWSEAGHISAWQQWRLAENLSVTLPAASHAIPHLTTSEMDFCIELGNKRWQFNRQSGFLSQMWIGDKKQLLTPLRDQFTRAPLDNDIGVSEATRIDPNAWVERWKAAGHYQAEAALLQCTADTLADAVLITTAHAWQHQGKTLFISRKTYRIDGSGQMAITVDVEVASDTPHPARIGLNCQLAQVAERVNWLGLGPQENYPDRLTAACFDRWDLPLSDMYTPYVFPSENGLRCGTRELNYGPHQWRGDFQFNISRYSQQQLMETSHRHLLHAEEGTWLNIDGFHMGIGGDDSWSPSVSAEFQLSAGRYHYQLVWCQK

Molecule: O=[N+]([O-])c1ccccc1O[C@@H]1O[C@H](CO)[C@H](O)[C@H](O)[C@H]1O [ONPG, o-nitrophenyl-β-D-galactopyranoside]
- Km (beta-galactosidase [1]): 167 µM

Molecule: OC[C@H]1O[C@@H](SCCc2ccccc2)[C@H](O)[C@@H](O)[C@H]1O [PETG, phenylethyl beta-D-thiogalactopyranoside]
- Ki (beta-galactosidase [2]): 0.00233 mM

Molecule: OC[C@H]1OC(O)[C@H](O)[C@@H](O)[C@H]1O (stereo partly shown) [Gal, galactose]
- Ki (beta-galactosidase [3]): 13.7 mM

B1: alcohol dehydrogenase (Saccharomyces cerevisiae S288C) (protein)
chain: SIPETQKGVIFYESHGKLEYKDIPVPKPKANELLINVKYSGVCHTDLHAWHGDWPLPVKLPLVGGHEGAGVVVGMGENVKGWKIGDYAGIKWLNGSCMACEYCELGNESNCPHADLSGYTHDGSFQQYATADAVQAAHIPQGTDLAQVAPILCAGITVYKALKSANLMAGHWVAISGAAGGLGSLAVQYAKAMGYRVLGIDGGEGKEELFRSIGGEVFIDFTKEKDIVGAVLKATDGGAHGVINVSVSEAAIEASTRYVRANGTTVLVGMPAGAKCCSDVFNQVVKSISIVGSYVGNRADTREALDFFARGLVKSPIKVVGLSTLPEIYEKMEKGQIVGRYVVDTSK
notes: yeast alcohol dehydrogenase (cat# A7011)
- Km [4]: 14300 µM

Reference: PMC9554301, “Rapid modeling of experimental molecular kinetics with simple electronic circuits instead of with complex differential equations” (Frontiers in Bioengineering and Biotechnology, 2022)
